In general, pIC50 refers to −log10 of the IC50, conventionally taken in molar units.

The test deals with T1, HEK 293 GPR73 (prokineticin 1 receptor) expressing cells (Homo sapiens, UniProt Q8TCW9).
T1 construct: expressed in transfected cells; host or cells: HEK 293
Description: PK1 functional assay: screening for PK1 antagonists on the FLIPR (calcium fluorescence). The settings on record: HEK 293 GPR73 cells; for inhibition at 10 µM: HEK293, compound at 10 μM, read-out: Ca^2+ Mobilization % Inh @10 μM; for inhibition at 10 µM / Ca^2+ Mobilization % Inh @10 μM: multiple values = repeat tests; for pIC50: PK1 ligand at EC50, multiple values = repeat tests, read-out: Ca^2+ Mobilization IC50; for Ca^2+ Mobilization % Inh @10 μM: compound at 10 μM. Type of test: cell-based. In a few lines:
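HEK 293 cells expressing GPR73 were loaded with Calcium Plus Dye for 30 min at 37 C, then read for calcium fluorescence on FLIPR. Values were baseline-subtracted and expressed as percent of maximal control; percent inhibition is 100 minus that, and IC50 was fitted from it.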

pIC50: −log10 of the molar value. Several values for one entry are separate records, joined by “and”; a condition that tells them apart may be missing. Identical values can stand only once.

T1 sequence (Q8TCW9 whole entry): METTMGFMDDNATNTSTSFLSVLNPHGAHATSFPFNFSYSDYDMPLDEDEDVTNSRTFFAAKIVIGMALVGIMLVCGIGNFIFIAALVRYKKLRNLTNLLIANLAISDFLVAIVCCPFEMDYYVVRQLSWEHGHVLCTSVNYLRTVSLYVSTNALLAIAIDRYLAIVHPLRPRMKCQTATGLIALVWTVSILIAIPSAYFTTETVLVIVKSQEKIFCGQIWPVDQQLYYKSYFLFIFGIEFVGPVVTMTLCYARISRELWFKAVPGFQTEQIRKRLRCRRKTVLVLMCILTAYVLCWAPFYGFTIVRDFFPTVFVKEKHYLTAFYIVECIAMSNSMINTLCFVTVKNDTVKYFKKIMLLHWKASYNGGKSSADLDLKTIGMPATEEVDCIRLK

Turning to `COc1ccc(Cn2c(NCCNC(=N)N)nc(=O)n(Cc3ccc(N)cc3)c2=O)cc1` [Cpd 125, N-{2-[5-(4-Amino-benzyl)-1-(4-methoxy-benzyl)-4,6-dioxo-1,4,5,6-tetrahydro-[1,3,5]triazin-2-ylamino]-ethyl}-guanidine], the inhibition at 10 µM was 83% and the negative logarithm of the IC50 (pIC50) was 6.31.
The corresponding values for `COc1ccc(Cn2c(NCCNC(=N)NC3C4CC5CC(C4)CC3C5)nc(=O)n(Cc3ccc(F)cc3)c2=O)cc1` (stereo not shown) [Cpd 126] are 95% and 6.94.
As to `COc1ccc(Cn2c(NCCNC(=N)Nc3ccc(OC(F)(F)F)cc3)nc(=O)n(Cc3ccc(F)cc3)c2=O)cc1` [Cpd 127], the inhibition at 10 µM was 100% and the pIC50 was 7.24.
Regarding `COc1ccc(Cn2c(NCCNC(=N)Nc3ccc(O)cc3)nc(=O)n(Cc3ccc(F)cc3)c2=O)cc1` [Cpd 128], the inhibition at 10 µM was 100% and the pIC50 was 7.40.
Consider `NC(N)=NCCNc1nc(=O)n(Cc2ccc(Cl)cc2)c(=O)n1Cc1ccccc1` [Cpd 129], for which the inhibition at 10 µM was 64% and the pIC50 is 5.32.
On the same counts, the results for `N=C(N)NCCNc1nc(=O)n(Cc2ccc(Cl)cc2)c(=O)n1Cc1ccoc1` [Cpd 130] are 71% and 5.73.
On to `COc1ccc(Cn2c(NC3CCC(NC(=N)N)CC3)nc(=O)n(Cc3ccc(F)cc3)c2=O)cc1` (stereo not shown) [Cpd 131], for which the pIC50 is less than 5.00 and the “Ca^2+ Mobilization % Inh @10 μM” value is on record as 32%.
Take `COc1ccc(Cn2c(NCC(=O)NC(=N)NC(=O)OC(C)(C)C)nc(=O)n(Cc3ccc(F)cc3)c2=O)cc1` [Cpd 132, N-{2-[5-(4-fluoro-benzyl)-1-(4-methoxy-benzyl)-4,6-dioxo-1,4,5,6-tetrahydro-[1,3,5]triazin-2-ylamino]-acetyl}-N′-boc-guanidine]: the inhibition at 10 µM turned out to be 54% and the pIC50 is 5.07.
With `COc1ccc(Cn2c(NCCNC(=N)Nc3ccccc3SC)nc(=O)n(Cc3ccc(F)cc3)c2=O)cc1` [Cpd 133], the inhibition at 10 µM was found to be 93% and the pIC50 was 6.70.
Take `COc1ccc(Cn2c(NCCN(C(=N)N)C(=O)c3ccccc3)nc(=O)n(Cc3ccc(F)cc3)c2=O)cc1` [Cpd 134, N-Benzoyl-N-{2-[5-(4-fluoro-benzyl)-1-(4-methoxy-benzyl)-4,6-dioxo-1,4,5,6-tetrahydro-[1,3,5]triazin-2-ylamino]-ethyl}-guanidine]: the pIC50 was 7.72 and 7.55; the “Ca^2+ Mobilization % Inh @10 μM” value is 97, 97%.
With `COc1ccc(Cn2c(NCCNC(=N)Nc3ncccn3)nc(=O)n(Cc3ccc(F)cc3)c2=O)cc1` [Cpd 135], the inhibition at 10 µM worked out at 100%; the pIC50 is 7.89 and 7.62. Where the note is “10 µM”, the “Ca^2+ Mobilization % Inh @10 μM” value worked out at 94%.
Regarding `COc1ccc(Cn2c(N[C@@H](C)[C@H](C)NC(=N)N)nc(=O)n(Cc3ccc(F)cc3)c2=O)cc1` [Cpd 136], the inhibition at 10 µM was determined as 50% and the negative-log IC50 (pIC50) is less than 5.00.
As to `COc1ccc(Cn2c(N[C@H](C)[C@@H](C)NC(=N)N)nc(=O)n(Cc3ccc(F)cc3)c2=O)cc1` [Cpd 137], the inhibition at 10 µM amounted to 101%; the pIC50 is 7.82 and 7.51.
On to `COc1ccc(Cn2c(NCCNC(=N)Nc3nc4c(c(C(F)(F)F)n3)CCCC4)nc(=O)n(Cc3ccc(F)cc3)c2=O)cc1` [Cpd 138], for which the inhibition at 10 µM amounted to 70% and the pIC50 was 5.87.
The corresponding values for `COc1ccc(Cn2c(NCCNC(=N)Nc3ccc(C)cn3)nc(=O)n(Cc3ccc(F)cc3)c2=O)cc1` [Cpd 139] are 95% and 7.74.
On the same counts, the results for `COc1ccc(Cn2c(NCCNC(=N)N3CCOCC3)nc(=O)n(Cc3ccc(F)cc3)c2=O)cc1` [Cpd 140] are 89% and 6.34.
The corresponding values for `N=C(N)NCCNc1nc(=O)n(Cc2ccc(Cl)cc2)c(=O)n1Cc1ccco1` [Cpd 141] are 73% and 5.74.
Take `COc1ccc(Cn2c(NCCCCCNC(=N)N)nc(=O)n(Cc3ccc(Cl)cc3)c2=O)cc1` [Cpd 142]: the inhibition at 10 µM was 90% and the pIC50 is 6.49.
Take `COc1ccc(Cn2c(=O)nc(NCCNC(=N)N)n(Cc3ccc(O)cc3)c2=O)cc1` [Cpd 143, N-{2-[1-(4-Hydroxy-benzyl)-5-(4-methoxy-benzyl)-4,6-dioxo-1,4,5,6-tetrahydro-[1,3,5]triazin-2-ylamino]-ethyl}-guanidine]: the inhibition at 10 µM came to 100%; the pIC50 was 8.22 and 7.57.
As for `COc1ccc(Cn2c(NCCCCCCNC(=N)N)nc(=O)n(Cc3ccc(Cl)cc3)c2=O)cc1` [Cpd 144], the inhibition at 10 µM worked out at 77% and the pIC50 was 5.88.
On the same counts, the results for `COc1ccc(CCn2c(=O)nc(NCCNC(=N)N)n(Cc3ccc(OC)cc3)c2=O)cc1` [Cpd 145] are 86% and 6.34.
With `COc1ccc(CCCn2c(=O)nc(NCCNC(=N)N)n(Cc3ccc(OC)cc3)c2=O)cc1` [Cpd 146], the inhibition at 10 µM came to 87% and the pIC50 was 6.17.
`COC(=O)c1ccc(Cn2c(NCCNC(=N)N)nc(=O)n(Cc3ccc(Cl)c(Cl)c3)c2=O)cc1` [Cpd 147]: the inhibition at 10 µM was found to be 82%.
`CCCCOc1ccc(Cn2c(NCCNC(=N)N)nc(=O)n(Cc3ccccc3)c2=O)cc1` [Cpd 148]: the inhibition at 10 µM came to 41% and the pIC50 was less than 5.00.
As for `NC(N)=NCCNc1nc(=O)n(Cc2ccc(Cl)cc2)c(=O)n1Cc1ccccc1` [Cpd 149], the pIC50 is 5.32 and the “Ca^2+ Mobilization % Inh @10 μM” value came out at 64%.
On the same counts, the results for `N=C(N)NCCNc1nc(=O)n(Cc2ccc(Cl)cc2)c(=O)n1Cc1ccoc1` [Cpd 150] are 5.73 and 71%.
`COc1ccc(Cn2c(NCCNC(=N)NC(C)=O)nc(=O)n(Cc3ccc(F)cc3)c2=O)cc1` [Cpd 151]: the inhibition at 10 µM came to 99% and the pIC50 was 8.52.
On the same counts, the results for `C=CCNC(=N)NCCNc1nc(=O)n(Cc2ccc(F)cc2)c(=O)n1Cc1ccc(OC)cc1` [Cpd 152] are 97% and 8.05.
As for `COc1ccc(Cn2c(NCCNC(=N)NC(C)C)nc(=O)n(Cc3ccc(F)cc3)c2=O)cc1` [Cpd 153], the inhibition at 10 µM worked out at 99% and the pIC50 is 7.89.
In the case of `CCCNC(=N)NCCNc1nc(=O)n(Cc2ccc(F)cc2)c(=O)n1Cc1ccc(OC)cc1` [Cpd 154], the inhibition at 10 µM turned out to be 99%; the pIC50 was 8.52 and 8.22. For the same molecule, the “Ca^2+ Mobilization % Inh @10 μM” value (10 µM) is 98%.
With `CCNC(=N)NCCNc1nc(=O)n(Cc2ccc(F)cc2)c(=O)n1Cc1ccc(OC)cc1` [Cpd 155], the inhibition at 10 µM was 99% and the pIC50 is 7.80.
With `CNC(=N)NCCNc1nc(=O)n(Cc2ccc(F)cc2)c(=O)n1Cc1ccc(OC)cc1` [Cpd 156], the inhibition at 10 µM is 102%; the pIC50 was 8.40 and 8.15. For the same molecule, the “Ca^2+ Mobilization % Inh @10 μM” value (10 µM) is given as 99%.
Consider `COc1ccc(Cn2c(C(=O)NCCNC(=N)N)cc(=O)n(Cc3ccc(OC)cc3)c2=O)cc1` [Cpd 157, 1,3-Bis-(4-methoxy-benzyl)-2,6-dioxo-1,2,3,6-tetrahydro-pyrimidine-4-carboxylic acid (2-guanidino-ethyl)-amide], for which the inhibition at 10 µM came out at 92% and the pIC50 was 6.71.
In the case of `COc1ccc(Cn2c(OCCNC(=N)N)cc(=O)n(Cc3ccc(OC)cc3)c2=O)cc1` [Cpd 158, N-{2-[1,3-Bis-(4-methoxy-benzyl)-2,6-dioxo-1,2,3,6-tetrahydro-pyrimidin-4-yloxy]-ethyl}-guanidine], the inhibition at 10 µM is 93% and the pIC50 is 6.60.
The corresponding values for `COc1ccc(Cn2c(SCCNC(=N)N)cc(=O)n(Cc3ccc(OC)cc3)c2=O)cc1` [Cpd 159, N-{2-[1,3-Bis-(4-methoxy-benzyl)-2,6-dioxo-1,2,3,6-tetrahydro-pyrimidin-4-ylsulfanyl]-ethyl}-guanidine] are 98% and 7.89.
With `COc1ccc(Cn2c(CCCNC(=N)N)cc(=O)n(Cc3ccc(OC)cc3)c2=O)cc1` [Cpd 160, N-{3-[1,3-Bis-(4-methoxy-benzyl)-2,6-dioxo-1,2,3,6-tetrahydro-pyrimidin-4-yl]-propyl}guanidine], the inhibition at 10 µM worked out at 89% and the pIC50 is 6.21.
Turning to “N-{2-[5-Benzyl-1-(4-methoxy-benzyl)-4,6-dioxo-1,4,5,6-tetrahydro-[1,3,5]triazin-2-ylamino]-ethyl}-oxyguanidine [Cpd 27]”, the pIC50 is 5.71 and the “Ca^2+ Mobilization % Inh @10 μM” value came out at 55%.

Source of the values: patent US20080045535A1, “Prokineticin 2 receptor antagonists” (priority 2005, published 2008).
